Results from patent EP4722212A1, “NOVEL COMPOUND FOR INHIBITING PROTEIN KINASES AND PHARMACEUTICAL COMPOSITION COMPRISING SAME” (Magicbullettherapeutics Co., Ltd., priority 2023, dated 2024).
Read-outs that look alike come from different tables or passages of the source.

Experiments:
Assay in all cases: Kinase panel
Format in all cases: biochemical
ARAF = conditions: 1 µM
Method: (§1) To measure the inhibitory activity of protein kinases against the compounds of the present invention, a biochemical assay was performed using a full kinase panel. The inhibitory efficacy of kinases was measured when Example compounds 8 and 51 were treated at a single concentration of 1 µM, and residual enzyme activity values were calculated. Kinases were identified when the calculated residual enzyme activity values were 40% or less, i.e., inhibited by 60% or more.

PKCG = PKCG (Homo sapiens, UniProt P05129); conditions: read-out: residual enzyme activity
Method: as §1

KHS/MAP4K5 = KHS/MAP4K5 (Homo sapiens, UniProt Q9Y4K4); conditions: KHS/MAP4K5, 1 µM; read-out: residual enzyme activity
Method: as §1

DCAMKL1 = DCAMKL1 (Homo sapiens, UniProt O15075); conditions: DCAMKL1, 1 µM; read-out: residual enzyme activity
Method: as §1

PKA = PKA (Homo sapiens, UniProt P17612); conditions: read-out: residual enzyme activity
Method: as §1

CDK2/CYCLIN A = CDK2/CYCLIN A (Homo sapiens, UniProt P24941); conditions: read-out: residual enzyme activity
Method: as §1

P70S6K/RPS6KB1 = P70S6K/RPS6KB1 (Homo sapiens, UniProt P23443); conditions: read-out: residual enzyme activity
Method: as §1

CKIEPSILON = CKIEPSILON (Homo sapiens, UniProt P49674); conditions: read-out: residual enzyme activity
Method: as §1

STK25/YSK1 = STK25/YSK1 (Homo sapiens, UniProt O00506); conditions: STK25/YSK1, 1 µM; read-out: residual enzyme activity
Method: as §1

AURORA A = AURORA A (Homo sapiens, UniProt O14965); conditions: read-out: residual enzyme activity
Sequence of AURORA A (O14965 whole entry): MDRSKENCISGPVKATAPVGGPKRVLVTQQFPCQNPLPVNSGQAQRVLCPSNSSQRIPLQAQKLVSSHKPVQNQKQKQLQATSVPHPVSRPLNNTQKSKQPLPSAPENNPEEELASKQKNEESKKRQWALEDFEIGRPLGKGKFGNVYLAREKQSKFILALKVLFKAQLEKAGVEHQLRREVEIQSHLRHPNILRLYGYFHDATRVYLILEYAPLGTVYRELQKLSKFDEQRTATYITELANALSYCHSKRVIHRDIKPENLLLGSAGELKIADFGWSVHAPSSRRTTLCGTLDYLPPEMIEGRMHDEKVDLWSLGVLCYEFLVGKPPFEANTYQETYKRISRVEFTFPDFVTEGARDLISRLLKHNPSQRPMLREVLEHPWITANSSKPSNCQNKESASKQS
Method: as §1

MARK4 = MARK4 (Homo sapiens, UniProt Q96L34); conditions: MARK4, 1 µM; read-out: residual enzyme activity
Method: as §1

RSK1 = RSK1 (Homo sapiens, UniProt Q15418); conditions: RSK1, 1 µM; read-out: residual enzyme activity
Method: as §1

DYRK4 = DYRK4 (Homo sapiens, UniProt Q9NR20); conditions: DYRK4, 1 µM; read-out: residual enzyme activity
Method: as §1

ALK4/ACVR1B = ALK4/ACVR1B (Homo sapiens, UniProt P36896); conditions: read-out: residual enzyme activity
Method: as §1

HIPK3 = HIPK3 (Homo sapiens, UniProt Q9H422); conditions: HIPK3, 1 µM; read-out: residual enzyme activity
Method: as §1

CLK2 = CLK2 (Homo sapiens, UniProt P49760); conditions: CLK2, 1 µM; read-out: residual enzyme activity
Method: as §1

LIMK1 = LIMK1 (Homo sapiens, UniProt P53667); conditions: LIMK1, 1 µM; read-out: residual enzyme activity
Sequence of LIMK1 (P53667 whole entry, species assumed): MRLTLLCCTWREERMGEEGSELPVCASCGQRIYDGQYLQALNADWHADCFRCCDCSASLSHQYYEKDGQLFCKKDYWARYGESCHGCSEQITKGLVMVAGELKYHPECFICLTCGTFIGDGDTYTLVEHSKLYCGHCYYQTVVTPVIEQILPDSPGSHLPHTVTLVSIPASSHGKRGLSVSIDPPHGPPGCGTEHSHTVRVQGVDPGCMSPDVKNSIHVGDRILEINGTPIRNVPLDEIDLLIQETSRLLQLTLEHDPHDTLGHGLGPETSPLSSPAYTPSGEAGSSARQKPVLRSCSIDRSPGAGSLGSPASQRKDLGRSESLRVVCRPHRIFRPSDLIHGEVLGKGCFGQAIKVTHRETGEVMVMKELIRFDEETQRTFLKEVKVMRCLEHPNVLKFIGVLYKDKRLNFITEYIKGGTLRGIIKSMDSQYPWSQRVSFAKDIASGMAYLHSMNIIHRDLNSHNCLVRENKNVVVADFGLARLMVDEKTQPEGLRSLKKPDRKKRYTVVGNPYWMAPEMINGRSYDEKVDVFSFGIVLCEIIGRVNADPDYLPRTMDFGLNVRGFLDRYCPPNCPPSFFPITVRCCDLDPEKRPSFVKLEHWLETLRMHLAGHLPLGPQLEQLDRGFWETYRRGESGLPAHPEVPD
Method: as §1

WNK3 = WNK3 (Homo sapiens, UniProt Q9BYP7); conditions: WNK3, 1 µM; read-out: residual enzyme activity
Sequence of WNK3 (Q9BYP7 whole entry, species assumed): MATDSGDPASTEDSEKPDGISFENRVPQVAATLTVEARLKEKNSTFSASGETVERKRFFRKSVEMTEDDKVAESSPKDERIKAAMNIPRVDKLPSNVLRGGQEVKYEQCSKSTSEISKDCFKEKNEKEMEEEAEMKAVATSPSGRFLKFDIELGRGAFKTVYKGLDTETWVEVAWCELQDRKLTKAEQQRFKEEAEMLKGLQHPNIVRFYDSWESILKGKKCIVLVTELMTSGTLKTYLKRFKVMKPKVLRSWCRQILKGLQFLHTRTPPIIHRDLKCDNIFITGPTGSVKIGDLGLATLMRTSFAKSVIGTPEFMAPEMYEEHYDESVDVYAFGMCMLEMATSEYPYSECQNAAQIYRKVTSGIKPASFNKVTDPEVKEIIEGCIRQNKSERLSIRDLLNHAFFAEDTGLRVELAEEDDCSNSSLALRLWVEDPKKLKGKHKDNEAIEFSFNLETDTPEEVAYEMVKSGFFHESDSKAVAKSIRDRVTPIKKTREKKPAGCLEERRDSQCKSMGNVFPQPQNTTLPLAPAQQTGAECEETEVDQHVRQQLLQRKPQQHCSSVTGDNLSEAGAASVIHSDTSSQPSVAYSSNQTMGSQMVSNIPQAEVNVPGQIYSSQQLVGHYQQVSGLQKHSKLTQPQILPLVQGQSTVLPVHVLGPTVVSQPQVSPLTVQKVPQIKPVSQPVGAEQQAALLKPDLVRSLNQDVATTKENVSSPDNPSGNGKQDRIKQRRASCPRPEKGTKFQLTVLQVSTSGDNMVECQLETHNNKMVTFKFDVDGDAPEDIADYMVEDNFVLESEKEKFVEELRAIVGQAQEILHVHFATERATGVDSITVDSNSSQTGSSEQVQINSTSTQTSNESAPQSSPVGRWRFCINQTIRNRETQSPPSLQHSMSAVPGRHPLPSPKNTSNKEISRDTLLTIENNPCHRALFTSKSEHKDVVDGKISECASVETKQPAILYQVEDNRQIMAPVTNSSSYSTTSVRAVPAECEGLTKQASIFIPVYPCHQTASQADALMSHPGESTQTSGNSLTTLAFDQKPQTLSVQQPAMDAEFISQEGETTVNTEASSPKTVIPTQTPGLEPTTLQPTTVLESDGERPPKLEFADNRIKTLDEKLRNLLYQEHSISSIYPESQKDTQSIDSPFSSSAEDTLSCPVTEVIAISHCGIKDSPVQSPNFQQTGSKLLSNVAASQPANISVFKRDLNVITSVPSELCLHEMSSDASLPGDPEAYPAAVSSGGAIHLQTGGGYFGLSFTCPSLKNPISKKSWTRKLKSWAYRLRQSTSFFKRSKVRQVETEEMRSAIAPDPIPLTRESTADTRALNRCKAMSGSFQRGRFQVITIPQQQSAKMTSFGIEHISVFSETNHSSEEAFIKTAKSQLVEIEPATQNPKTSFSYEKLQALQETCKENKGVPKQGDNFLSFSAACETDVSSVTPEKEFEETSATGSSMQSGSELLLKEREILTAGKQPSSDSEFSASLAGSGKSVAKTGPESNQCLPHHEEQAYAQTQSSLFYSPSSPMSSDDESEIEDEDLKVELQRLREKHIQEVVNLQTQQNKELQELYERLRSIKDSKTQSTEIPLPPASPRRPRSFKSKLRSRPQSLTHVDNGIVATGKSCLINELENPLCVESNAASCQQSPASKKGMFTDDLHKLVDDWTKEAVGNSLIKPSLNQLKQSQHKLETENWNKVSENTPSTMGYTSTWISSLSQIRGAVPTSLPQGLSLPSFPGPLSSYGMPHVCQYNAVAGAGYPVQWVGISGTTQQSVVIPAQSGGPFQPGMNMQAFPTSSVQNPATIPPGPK
Method: as §1

SRPK1 = SRPK1 (Homo sapiens, UniProt Q96SB4); conditions: SRPK1, 1 µM; read-out: residual enzyme activity
Sequence of SRPK1 (Q96SB4 whole entry, species assumed): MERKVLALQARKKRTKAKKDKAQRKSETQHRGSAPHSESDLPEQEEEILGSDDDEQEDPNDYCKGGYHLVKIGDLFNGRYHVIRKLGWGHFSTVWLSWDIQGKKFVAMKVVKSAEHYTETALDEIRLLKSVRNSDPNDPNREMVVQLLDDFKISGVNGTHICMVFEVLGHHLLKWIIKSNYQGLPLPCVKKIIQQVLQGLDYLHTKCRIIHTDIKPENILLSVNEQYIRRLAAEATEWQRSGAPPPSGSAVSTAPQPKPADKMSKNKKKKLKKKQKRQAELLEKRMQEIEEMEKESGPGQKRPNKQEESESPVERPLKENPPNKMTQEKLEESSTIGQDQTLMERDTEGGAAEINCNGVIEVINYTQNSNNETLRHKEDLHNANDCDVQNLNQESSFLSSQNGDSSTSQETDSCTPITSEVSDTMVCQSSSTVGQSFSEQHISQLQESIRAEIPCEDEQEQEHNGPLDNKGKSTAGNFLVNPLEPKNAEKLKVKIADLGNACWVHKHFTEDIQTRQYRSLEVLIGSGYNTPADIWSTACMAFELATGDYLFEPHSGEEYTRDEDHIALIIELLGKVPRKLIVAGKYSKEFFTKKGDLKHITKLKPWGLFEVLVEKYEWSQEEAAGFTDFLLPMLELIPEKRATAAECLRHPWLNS
Method: as §1

MEKK1 = MEKK1 (Homo sapiens, UniProt Q13233); conditions: MEKK1, 1 µM; read-out: residual enzyme activity
Method: as §1

MELK = MELK (Homo sapiens, UniProt Q14680); conditions: read-out: residual enzyme activity
Method: as §1

SRMS = SRMS (Homo sapiens, UniProt Q9H3Y6); conditions: read-out: residual enzyme activity
Method: as §1

TAOK1 = TAOK1 (Homo sapiens, UniProt Q7L7X3); conditions: TAOK1, 1 µM; read-out: residual enzyme activity
Method: as §1

EPHB4 = EPHB4 (Homo sapiens, UniProt P54760); conditions: EPHB4, 1 µM; read-out: residual enzyme activity
Method: as §1

FLT3 = FLT3 (Homo sapiens, UniProt P36888); conditions: FLT3, 1 µM; read-out: residual enzyme activity
Method: as §1

MAPKAPKS/PRAK = MAPKAPKS/PRAK (Homo sapiens, UniProt Q8IW41); conditions: read-out: residual enzyme activity
Method: as §1

MLK1/MAP3K9 = MLK1/MAP3K9 (Homo sapiens, UniProt P80192); conditions: MLK1/MAP3K9, 1 µM; read-out: residual enzyme activity
Method: as §1

ULK1 = ULK1 (Homo sapiens, UniProt O75385); conditions: ULK1, 1 µM; read-out: residual enzyme activity
Method: as §1

PHKG1 = PHKG1 (Homo sapiens, UniProt Q16816); conditions: read-out: residual enzyme activity
Method: as §1

BMX/ETK = BMX/ETK (Homo sapiens, UniProt P51813); conditions: read-out: residual enzyme activity
Method: as §1

TRKB = TRKB (Homo sapiens, UniProt Q16620); conditions: read-out: residual enzyme activity
Sequence of TRKB (Q16620 32-822, species assumed): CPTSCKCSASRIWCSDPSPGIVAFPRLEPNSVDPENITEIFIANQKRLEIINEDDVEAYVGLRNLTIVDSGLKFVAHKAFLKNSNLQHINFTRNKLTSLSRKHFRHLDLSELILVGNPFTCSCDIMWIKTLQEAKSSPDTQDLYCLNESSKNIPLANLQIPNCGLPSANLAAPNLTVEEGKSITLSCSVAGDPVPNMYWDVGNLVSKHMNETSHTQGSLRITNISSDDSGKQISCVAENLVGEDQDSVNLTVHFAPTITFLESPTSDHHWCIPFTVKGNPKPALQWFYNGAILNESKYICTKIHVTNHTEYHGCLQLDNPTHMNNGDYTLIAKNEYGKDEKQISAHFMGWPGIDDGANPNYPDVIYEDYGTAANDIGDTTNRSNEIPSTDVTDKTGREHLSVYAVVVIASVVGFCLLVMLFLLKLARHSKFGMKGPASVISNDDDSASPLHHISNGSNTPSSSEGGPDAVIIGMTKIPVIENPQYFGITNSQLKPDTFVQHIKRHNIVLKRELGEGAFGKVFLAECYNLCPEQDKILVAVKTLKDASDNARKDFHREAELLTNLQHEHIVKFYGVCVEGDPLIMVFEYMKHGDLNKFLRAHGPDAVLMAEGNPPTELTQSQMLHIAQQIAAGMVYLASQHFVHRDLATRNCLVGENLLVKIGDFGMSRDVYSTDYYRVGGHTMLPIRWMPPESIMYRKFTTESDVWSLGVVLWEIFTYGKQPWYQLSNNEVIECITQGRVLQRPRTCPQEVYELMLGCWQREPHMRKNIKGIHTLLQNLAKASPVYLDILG
Method: as §1

STK32C/YANK3 = STK32C/YANK3 (Homo sapiens, UniProt Q86UX6); conditions: STK32C/YANK3, 1 µM; read-out: residual enzyme activity
Sequence of STK32C/YANK3 (Q86UX6 whole entry): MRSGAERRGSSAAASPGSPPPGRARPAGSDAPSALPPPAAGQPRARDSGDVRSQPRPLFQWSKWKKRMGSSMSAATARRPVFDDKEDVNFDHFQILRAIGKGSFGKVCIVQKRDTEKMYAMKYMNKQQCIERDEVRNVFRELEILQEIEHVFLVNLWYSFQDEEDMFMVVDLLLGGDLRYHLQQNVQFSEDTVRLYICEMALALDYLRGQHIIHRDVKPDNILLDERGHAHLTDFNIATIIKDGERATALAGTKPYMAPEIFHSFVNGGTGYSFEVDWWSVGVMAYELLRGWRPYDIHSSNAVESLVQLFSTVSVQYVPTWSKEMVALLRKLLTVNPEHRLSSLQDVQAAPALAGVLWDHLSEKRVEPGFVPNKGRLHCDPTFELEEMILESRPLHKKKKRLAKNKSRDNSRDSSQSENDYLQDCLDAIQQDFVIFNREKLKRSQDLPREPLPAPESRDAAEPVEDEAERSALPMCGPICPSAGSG
Method: as §1

PLK1 = PLK1 (Homo sapiens, UniProt P53350); conditions: PLK1, 1 µM; read-out: residual enzyme activity
Method: as §1

PIM3 = PIM3 (Homo sapiens, UniProt Q86V86); conditions: PIM3, 1 µM; read-out: residual enzyme activity
Method: as §1

`Cc1cn(-c2cc(C(=O)Nc3ccc(C)c(N4Cc5cnc(NC6CC6)nc5C5(CC5)C4=O)c3)cc(C(F)(F)F)c2)cn1` [Compound 8, N-(3-(2'-(cyclopropylamino)-7'-oxo-5'H-spiro[cyclopropane-1,8'-pyrido[4,3-d]pyrimidine]-6'(7'H)-yl)-4-methylphenyl)-3-(4-methyl-1H-imidazol-1-yl)-5-(trifluoromethyl)benzamide] was tested, and the residual enzyme activity (ARAF) was “O (residual enzyme activity values were 40% or less, i.e., inhibited by 60% or more)”, the remaining activity at 1 µM (PKCG) was over 40% and the remaining activity at 1 µM (KHS/MAP4K5) was at most 40%. The remaining activity at 1 µM (DCAMKL1) was over 40%, the remaining activity at 1 µM (PKA) was over 40% and the remaining activity at 1 µM (CDK2/CYCLIN A) was over 40%. It also gave a remaining activity at 1 µM (P70S6K/RPS6KB1; P70S6K/RPS6KB1, 1 µM) of over 40%, a remaining activity at 1 µM (CKIEPSILON; CKIEPSILON) of over 40% and a remaining activity at 1 µM (STK25/YSK1) of over 40%. The remaining activity at 1 µM (AURORA A) was over 40%, the remaining activity at 1 µM (MARK4) was over 40% and the remaining activity at 1 µM (RSK1) was at most 40%. For the same molecule, the remaining activity at 1 µM (DYRK4) was over 40%, the remaining activity at 1 µM (ALK4/ACVR1B) was over 40% and the remaining activity at 1 µM (HIPK3) was over 40%. The remaining activity at 1 µM (CLK2) was over 40%, the remaining activity at 1 µM (LIMK1) was at most 40% and the remaining activity at 1 µM (WNK3) was over 40%. The remaining activity at 1 µM (SRPK1) was over 40%, the remaining activity at 1 µM (MEKK1) was over 40% and the remaining activity at 1 µM (MELK) was over 40%. The remaining activity at 1 µM (SRMS) was at most 40%, the remaining activity at 1 µM (TAOK1) was at most 40% and the remaining activity at 1 µM (EPHB4) was at most 40%. For the same molecule, the remaining activity at 1 µM (FLT3) was at most 40%, the remaining activity at 1 µM (MAPKAPKS/PRAK) was over 40% and the remaining activity at 1 µM (MLK1/MAP3K9) was over 40%. It also gave a remaining activity at 1 µM (ULK1) of over 40%, a remaining activity at 1 µM (PHKG1; PHKG1, 1 µM) of over 40% and a remaining activity at 1 µM (BMX/ETK) of at most 40%. For the same molecule, the remaining activity at 1 µM (TRKB) was at most 40%, the remaining activity at 1 µM (STK32C/YANK3) was over 40% and the remaining activity at 1 µM (PLK1) was over 40%. It also gave a remaining activity at 1 µM (PIM3) of over 40%.

With `Cc1ccc(Nc2ncc3c(n2)C2(CC2)C(=O)N(c2cc(NC(=O)c4cccc(C(F)(F)F)c4)ccc2C)C3)cn1` [Compound 51, N-(4-methyl-3-(2'-((6-methylpyridin-3-yl)amino)-7'-oxo-5'H-spiro[cyclopropane-1,8'-pyrido[4,3-d]pyrimidine]-6'(7'H)-yl)phenyl)-3-(trifluoromethyl)benzamide] the residual enzyme activity (ARAF) was “O (residual enzyme activity values were 40% or less, i.e., inhibited by 60% or more)”, the remaining activity at 1 µM (PKCG) was over 40% and the remaining activity at 1 µM (KHS/MAP4K5) was at most 40%. For the same molecule, the remaining activity at 1 µM (DCAMKL1) was over 40%, the remaining activity at 1 µM (PKA) was over 40% and the remaining activity at 1 µM (CDK2/CYCLIN A) was over 40%. The remaining activity at 1 µM (P70S6K/RPS6KB1; p70S6K/RPS6KB1, 1 µM) was at most 40%, the remaining activity at 1 µM (CKIEPSILON; CKlepsilon) was over 40% and the remaining activity at 1 µM (STK25/YSK1) was over 40%. For the same molecule, the remaining activity at 1 µM (AURORA A) was over 40%, the remaining activity at 1 µM (MARK4) was over 40% and the remaining activity at 1 µM (RSK1) was at most 40%. It also gave a remaining activity at 1 µM (DYRK4) of over 40%, a remaining activity at 1 µM (ALK4/ACVR1B) of over 40% and a remaining activity at 1 µM (HIPK3) of over 40%. The remaining activity at 1 µM (CLK2) was over 40%, the remaining activity at 1 µM (LIMK1) was at most 40% and the remaining activity at 1 µM (WNK3) was over 40%. The remaining activity at 1 µM (SRPK1) was over 40%, the remaining activity at 1 µM (MEKK1) was over 40% and the remaining activity at 1 µM (MELK) was over 40%. The remaining activity at 1 µM (SRMS) was at most 40%, the remaining activity at 1 µM (TAOK1) was at most 40% and the remaining activity at 1 µM (EPHB4) was at most 40%. The remaining activity at 1 µM (FLT3) was at most 40%, the remaining activity at 1 µM (MAPKAPKS/PRAK) was over 40% and the remaining activity at 1 µM (MLK1/MAP3K9) was at most 40%. The remaining activity at 1 µM (ULK1) was over 40%, the remaining activity at 1 µM (PHKG1; PHKgl, 1 µM) was over 40% and the remaining activity at 1 µM (BMX/ETK) was at most 40%. It also gave a remaining activity at 1 µM (TRKB) of at most 40%, a remaining activity at 1 µM (STK32C/YANK3) of over 40% and a remaining activity at 1 µM (PLK1) of over 40%. For the same molecule, the remaining activity at 1 µM (PIM3) was over 40%.
